# Measured values from US20250145596A1, “HETEROCYCLIC GLP-1 AGONISTS” (Gasherbrum Bio, Inc., priority 2022, published 2025).
# Biological target: T1, GLP-1 Receptor (Homo sapiens, UniProt P43220)
# T1 construct: host or cells: HEK293/CRE-Luc
# Assay: GLP-1R agonist cAMP stimulation assay
# Assay type: cell-based
# Settings: HEK293/CRE-Luc cell line stably expressing the GLP-1 Receptor; 30 min at 37° C.; cAMP dynamic 2 Kit
# Protocol: Activation of GLP-1 receptor is known to stimulate cyclic AMP (cAMP) production in cells which indicates primary coupling to the Gas subunit of the G protein heterotrimeric complex.
# To optimize functional activity directed toward Gas coupling, a HEK293/CRE-Luc cell line developed by HDB stably expressing the GLP-1 Receptor was used. 200× concentration of compound working solutions were prepared (Agilent Technologies Bravo) with ½ log serial dilution in 384-well Echo LDV plate (Labcyte, Cat #LP-0200). 50 nL/well 200× concentration of compound working solutions were moved to 384-well white low volume plate (Greiner, Cat #784075) using Labcyte ECHO550. 1×10^5 cells/mL HEK293/GLPlR/CRE-LUC (HD Biosciences) cell suspensions prepared with assay buffer [DPBS containing 0.5 mM IBMX (Sigma, Cat #15879) and 0.1% BSA (GENVIEW, Cat #FA016-100g)], 10 μL cell suspensions were added to each well of previous generated assay plate which already contains 50 nL compound at 200× concentration using ThermoFisher Multidrop Combi (1000 cells/well). Seal the plate and incubate at 37° C. with 5% CO2 for 30 min.
# After incubation the cAMP assay signal was generated using cAMP dynamic 2 Kit (Cisbio). 5 μL cAMP-d2 working solution was added to each well, followed with 5 μL Anti-cAMP antibody-cryptate working solution added to each well using ThermoFisher Multidrop Combi. Incubate at room temperature for 1 hour protected from light. Read the fluorescence at 665 and 615 nm with Reader PerkinElmer EnVision.
# % Activity=100%×(mean RLU of test sample mean RLU of vehicle control)/(mean RLU of MAX control−mean RLU of vehicle control))
# T1 sequence (P43220 24-463): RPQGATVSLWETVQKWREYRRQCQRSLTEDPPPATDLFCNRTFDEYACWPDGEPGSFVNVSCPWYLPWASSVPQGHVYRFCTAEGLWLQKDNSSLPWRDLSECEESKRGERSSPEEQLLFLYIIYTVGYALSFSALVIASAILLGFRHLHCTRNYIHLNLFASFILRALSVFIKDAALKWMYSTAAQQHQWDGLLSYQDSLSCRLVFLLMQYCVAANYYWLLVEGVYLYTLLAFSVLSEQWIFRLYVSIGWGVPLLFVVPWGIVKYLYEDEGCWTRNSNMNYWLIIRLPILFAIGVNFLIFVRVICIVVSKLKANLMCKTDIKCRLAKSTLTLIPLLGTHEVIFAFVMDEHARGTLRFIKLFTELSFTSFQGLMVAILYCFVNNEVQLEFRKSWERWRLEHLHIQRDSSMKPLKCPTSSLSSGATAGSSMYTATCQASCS
row,SMILES,EC50 [nM]
1,"CC(c1cc(-c2nnc(C(F)(F)F)[nH]2)cnc1CN1CCC(c2cccc3c2O[C@@](C)(c2ccc(Cl)cc2F)O3)CC1)S(C)(=O)=O (stereo partly drawn) [Example 60, 2-((4-((S)-2-(4-chloro-2-fluorophenyl)-2-methylbenzo[d][1,3]dioxol-4-yl)piperidin-1-yl)methyl)-3-(1-(methylsulfonyl)ethyl)-5-(5-(trifluoromethyl)-4H-1,2,4-triazol-3-yl)pyridine]",1 to 100
2,"N#CC1(Cc2cc(-c3nnc(C(F)(F)F)[nH]3)cnc2CN2CCC(c3ccc(F)c(OCc4ccc(Cl)cc4F)n3)CC2)CC1 [Example 33, 1-((2-((4-(6-((4-chloro-2-fluorobenzyl)oxy)-5-fluoropyridin-2-yl)piperidin-1-yl)methyl)-5-(5-(trifluoromethyl)-4H-1,2,4-triazol-3-yl)pyridin-3-yl)methyl)cyclopropane-1-carbonitrile]",< 1
3,"CC1(c2ccc(Cl)cc2F)Oc2cc(F)cc(C3CCN(Cc4ncc(-c5nnc(C(F)(F)F)[nH]5)cc4CC4(C#N)CC4)CC3)c2O1 (single isomer, unassigned) [Example 13, 1-{[2-({4-[2-(4-chloro-2-fluorophenyl)-6-fluoro-2-methyl-2H-1,3-benzodioxol-4-yl]piperidin-1-yl}methyl)-5-[5-(trifluoromethyl)-4H-1,2,4-triazol-3-yl]pyridin-3-yl]methyl}cyclopropane-1-carbonitrile]",< 1
4,COCCc1cc(-c2nnc(C(F)(F)F)[nH]2)cnc1CN1CCC(c2cccc3c2O[C@@](C)(c2ccc(Cl)cn2)O3)CC1 [Example 89],1 to 100
5,Cc1cc(CN2CCC(c3cccc4c3OC(C)(c3ccc(Cl)cc3F)O4)CC2)ncc1-c1nnn[nH]1 (stereo not shown) [Example 96],> 100
6,CC1(c2ccc(Cl)cc2F)Oc2cccc(C3CCN(Cc4ncc(-c5nnn[nH]5)cc4C(F)(F)F)CC3)c2O1 (stereo not shown) [Example 98],> 100
7,"C[C@]1(c2ccc(Cl)cc2F)Oc2cccc(C3CCN(Cc4ncc(-c5nnc(C(F)(F)F)[nH]5)cc4CS(C)(=O)=O)CC3)c2O1 [Example 55, 2-({4-[(2S)-2-(4-chloro-2-fluorophenyl)-2-methyl-2H-1,3-benzodioxol-4-yl]piperidin-1-yl}methyl)-3-(methanesulfonylmethyl)-5-[5-(trifluoromethyl)-4H-1,2,4-triazol-3-yl]pyridine]",< 1
8,"C[C@H]1CN(c2ccc(F)c(OCc3ccc(Cl)cc3F)c2)CCN1Cc1ncc(-c2nnc(C(F)(F)F)[nH]2)cc1CC1(C#N)CC1 [Example 43, 1-[(2-{[(2S)-4-{3-[(4-chloro-2-fluorophenyl)methoxy]-4-fluorophenyl}-2-methylpiperazin-1-yl]methyl}-5-[5-(trifluoromethyl)-4H-1,2,4-triazol-3-yl]pyridin-3-yl)methyl]cyclopropane-1-carbonitrile]",< 1
9,CS(=O)(=O)Cc1cc(-c2nnc(C(F)(F)F)[nH]2)cnc1CN1CCC(Oc2cccc(Cc3ccc(Cl)cc3F)n2)CC1 [Example 87],1 to 100
10,Cc1cc(-c2cnn(C)c(=O)c2)cnc1CN1CCC(c2cccc(OCc3ccc(Cl)cc3F)n2)CC1 [Example 100],> 100
11,"N#CC1(Cc2cc(-c3nnc(C(F)(F)F)[nH]3)cnc2CN2CCC(c3nc(OCc4ccc(Cl)cc4F)ncc3F)CC2)CC1 [Example 35, 1-({2-[(4-{2-[(4-chloro-2-fluorophenyl)methoxy]-5-fluoropyrimidin-4-yl}piperidin-1-yl)methyl]-5-[5-(trifluoromethyl)-4H-1,2,4-triazol-3-yl]pyridin-3-yl}methyl)cyclopropane-1-carbonitrile]",1 to 100
12,"CC1(c2ccc(Cl)cc2Cl)Oc2cccc(C3CCN(Cc4ncc(-c5nnc(C(F)(F)F)[nH]5)cc4CC4(C#N)CC4)CC3)c2O1 (single isomer, unassigned) [Example 2, 1-{[2-({4-[2-(2,4-dichlorophenyl)-2-methyl-2H-1,3-benzodioxol-4-yl]piperidin-1-yl}methyl)-5-[5-(trifluoromethyl)-4H-1,2,4-triazol-3-yl]pyridin-3-yl]methyl}cyclopropane-1-carbonitrile]",< 1
13,"N#CC1(Cc2cc(-c3nnc(C(F)(F)F)[nH]3)cnc2CN2CCC(c3cccnc3OCc3ccc(Cl)cc3F)CC2)CC1 [Example 37, 1-({2-[(4-{2-[(4-chloro-2-fluorophenyl)methoxy]pyridin-3-yl}piperidin-1-yl)methyl]-5-[5-(trifluoromethyl)-4H-1,2,4-triazol-3-yl]pyridin-3-yl}methyl)cyclopropane-1-carbonitrile]",< 1
14,"N#CC1(Cc2cc(-c3nnc(C(F)(F)F)[nH]3)cnc2CN2CCC(c3ccc(F)c(OCc4ccc(Cl)c5ccoc45)n3)CC2)CC1 [Example 63, 1-((2-((4-(6-((4-chlorobenzofuran-7-yl)methoxy)-5-fluoropyridin-2-yl)piperidin-1-yl)methyl)-5-(5-(trifluoromethyl)-4H-1,2,4-triazol-3-yl)pyridin-3-yl)methyl)cyclopropane-1-carbonitrile]",< 1
15,C[C@]1(c2ccc(Cl)cc2F)Oc2cccc(C3CCN(Cc4ncc(-c5nnc(C(F)(F)F)[nH]5)cc4CC4CCOC4)CC3)c2O1 (stereo partly shown) [Example 79],1 to 100
16,"Cc1cc(Cl)ccc1C1(C)Oc2cccc(C3CCN(Cc4ncc(-c5nnc(C(F)(F)F)[nH]5)cc4CC4(C#N)CC4)CC3)c2O1 (stereo not shown) [Example 7, 1-((2-((4-(2-(4-chloro-2-methylphenyl)-2-methylbenzo[d][1,3]dioxol-4-yl)piperidin-1-yl)methyl)-5-(5-(trifluoromethyl)-4H-1,2,4-triazol-3-yl)pyridin-3-yl)methyl)cyclopropane-1-carbonitrile]",< 1
17,"C[C@]1(c2ccc(Cl)cc2F)Oc2cccc(C3CCN(Cc4ncc(-c5nnc(C(F)(F)F)[nH]5)cc4CC4(C#N)CC4)CC3F)c2O1 (single isomer, unassigned) [Example 27]",< 1
18,"CC1(c2ccc(Cl)cc2F)Oc2cccc(C3=CCN(Cc4ncc(-c5nnc(C(F)(F)F)[nH]5)cc4CC4(C#N)CC4)CC3)c2O1 (stereo not shown) [Example 66, 1-((2-((4-(2-(4-chloro-2-fluorophenyl)-2-methylbenzo[d][1,3]dioxol-4-yl)-3,6-dihydropyridin-1(2H)-yl)methyl)-5-(5-(trifluoromethyl)-4H-1,2,4-triazol-3-yl)pyridin-3-yl)methyl)cyclopropane-1-carbonitrile]",< 1
19,N#CC1(Cc2cc(-c3nnc(C(F)(F)F)[nH]3)cnc2CN2CCN(c3ccnc(OCc4ccc(Cl)cc4F)n3)CC2)CC1 [Example 83],1 to 100
20,"N#CC1(Cc2cc(-c3nnc(C(F)(F)F)[nH]3)cnc2CN2CCC(c3ncc(F)c(OCc4ccc(Cl)cc4F)n3)CC2)CC1 [Example 36, 1-((2-((4-(4-((4-chloro-2-fluorobenzyl)oxy)-5-fluoropyrimidin-2-yl)piperidin-1-yl)methyl)-5-(5-(trifluoromethyl)-4H-1,2,4-triazol-3-yl)pyridin-3-yl)methyl)cyclopropane-1-carbonitrile]",< 1
21,"CC1(c2ccc(Cl)c(F)c2)Oc2cccc(C3CCN(Cc4ncc(-c5nnc(C(F)(F)F)[nH]5)cc4CC4(C#N)CC4)CC3)c2O1 (stereo not shown) [Example 10, 1-{[2-({4-[2-(4-Chloro-3-fluorophenyl)-2-methyl-2H-1,3-benzodioxol-4-yl]piperidin-1-yl}methyl)-5-[5-(trifluoromethyl)-4H-1,2,4-triazol-3-yl]pyridin-3-yl]methyl}cyclopropane-1-carbonitrile]",< 1
22,"N#CC1(Cc2cc(-c3nnc(C(F)(F)F)[nH]3)cnc2CN2CCC(c3cccc4c3OC(c3ccc(Cl)cc3F)CO4)CC2)CC1 (stereo not shown) [Example 38, 1-{[2-({4-[3-(4-chloro-2-fluorophenyl)-2,3-dihydro-1,4-benzodioxin-5-yl]piperidin-1-yl}methyl)-5-[5-(trifluoromethyl)-4H-1,2,4-triazol-3-yl]pyridin-3-yl]methyl}cyclopropane-1-carbonitrile]",< 1
23,"CC1(c2ccc(Cl)cc2Cl)Oc2cccc(C3CCN(Cc4ncc(-c5nnc(C(F)(F)F)[nH]5)cc4CC4(C#N)CC4)CC3)c2O1 (single isomer, unassigned) [Example 3, 1-{[2-({4-[2-(2,4-dichlorophenyl)-2-methyl-2H-1,3-benzodioxol-4-yl]piperidin-1-yl}methyl)-5-[5-(trifluoromethyl)-4H-1,2,4-triazol-3-yl]pyridin-3-yl]methyl}cyclopropane-1-carbonitrile]",< 1
24,C[C@]1(c2ccc(Cl)cc2F)Oc2cccc(C3CCN(Cc4ncc(-c5nnc(C(F)(F)F)[nH]5)cc4C#N)CC3)c2O1 [Example 93],1 to 100
25,"N#CC1(Cc2cc(-c3nnc(C(F)(F)F)[nH]3)cnc2CN2CCC(c3ccnc(OCc4ccc(Cl)cc4F)n3)CC2)CC1 [Example 34, 1-({2-[(4-{2-[(4-chloro-2-fluorophenyl)methoxy]pyrimidin-4-yl}piperidin-1-yl)methyl]-5-[5-(trifluoromethyl)-4H-1,2,4-triazol-3-yl]pyridin-3-yl}methyl)cyclopropane-1-carbonitrile]",< 1
